In assay [1] the target is T1, human recombinant adrenergic α2B receptor (Homo sapiens, UniProt P18089).
T1 construct: expressed in transfected cells; host or cells: CHO-K1
T1 sequence (P18089 1-450): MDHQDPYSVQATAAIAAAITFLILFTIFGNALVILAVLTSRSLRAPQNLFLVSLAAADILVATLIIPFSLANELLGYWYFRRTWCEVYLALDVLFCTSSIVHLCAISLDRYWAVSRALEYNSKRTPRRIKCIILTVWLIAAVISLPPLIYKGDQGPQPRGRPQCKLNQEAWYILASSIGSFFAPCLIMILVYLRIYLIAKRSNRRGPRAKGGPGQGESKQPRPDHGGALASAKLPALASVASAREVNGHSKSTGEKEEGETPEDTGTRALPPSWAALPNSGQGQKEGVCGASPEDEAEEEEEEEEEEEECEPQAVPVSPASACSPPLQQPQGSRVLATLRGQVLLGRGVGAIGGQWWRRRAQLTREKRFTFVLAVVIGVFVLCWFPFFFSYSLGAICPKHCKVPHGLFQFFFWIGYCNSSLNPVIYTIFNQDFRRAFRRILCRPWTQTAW
Nature of the assay: Radioligand binding, adrenergic α2B ([3H]Rauwolscine). Summed up: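 Membranes from CHO-K1 cells expressing human recombinant α2B, in 50 mM Tris-HCl pH 7.4, 12.5 mM MgCl2, 1 mM EDTA, 0.2% BSA, incubated with compound and 2.5 nM [3H]Rauwolscine, 60 min, 25 °C.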

For assay [2], the target named is T2, rat adrenergic α1B receptor (Rattus norvegicus, UniProt P15823).
T2 construct: rat adrenergic α1B receptor obtained from Wistar Rat liver; from tissue; host or cells: Wistar rat liver
T2 sequence (P15823 1-515): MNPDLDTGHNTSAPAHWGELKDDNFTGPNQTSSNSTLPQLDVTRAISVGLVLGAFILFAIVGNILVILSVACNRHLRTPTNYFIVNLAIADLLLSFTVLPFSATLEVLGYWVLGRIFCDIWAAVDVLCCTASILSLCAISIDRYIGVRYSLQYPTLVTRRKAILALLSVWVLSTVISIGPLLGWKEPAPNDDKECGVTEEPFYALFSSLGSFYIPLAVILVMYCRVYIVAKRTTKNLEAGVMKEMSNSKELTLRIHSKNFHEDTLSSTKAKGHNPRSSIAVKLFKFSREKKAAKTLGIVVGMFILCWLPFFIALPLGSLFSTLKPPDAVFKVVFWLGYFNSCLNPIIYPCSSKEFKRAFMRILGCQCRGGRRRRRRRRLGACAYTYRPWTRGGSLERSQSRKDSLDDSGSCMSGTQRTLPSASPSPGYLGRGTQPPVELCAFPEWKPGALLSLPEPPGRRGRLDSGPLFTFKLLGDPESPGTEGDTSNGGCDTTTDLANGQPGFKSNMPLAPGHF
Nature of the assay: Radioligand binding, adrenergic α1B ([3H]Prazosin). Summed up:
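Filter binding with Wistar rat liver α1B preparation: test compound plus 0.25 nM [3H]prazosin, 1 h at 25° C in modified Tris-HCl buffer pH 7.4.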

In assay [3] the target is T3, human recombinant adrenergic α1D receptor (Homo sapiens, UniProt P25100).
T3 construct: expressed in transfected cells; host or cells: HEK-293
T3 sequence (P25100 1-572): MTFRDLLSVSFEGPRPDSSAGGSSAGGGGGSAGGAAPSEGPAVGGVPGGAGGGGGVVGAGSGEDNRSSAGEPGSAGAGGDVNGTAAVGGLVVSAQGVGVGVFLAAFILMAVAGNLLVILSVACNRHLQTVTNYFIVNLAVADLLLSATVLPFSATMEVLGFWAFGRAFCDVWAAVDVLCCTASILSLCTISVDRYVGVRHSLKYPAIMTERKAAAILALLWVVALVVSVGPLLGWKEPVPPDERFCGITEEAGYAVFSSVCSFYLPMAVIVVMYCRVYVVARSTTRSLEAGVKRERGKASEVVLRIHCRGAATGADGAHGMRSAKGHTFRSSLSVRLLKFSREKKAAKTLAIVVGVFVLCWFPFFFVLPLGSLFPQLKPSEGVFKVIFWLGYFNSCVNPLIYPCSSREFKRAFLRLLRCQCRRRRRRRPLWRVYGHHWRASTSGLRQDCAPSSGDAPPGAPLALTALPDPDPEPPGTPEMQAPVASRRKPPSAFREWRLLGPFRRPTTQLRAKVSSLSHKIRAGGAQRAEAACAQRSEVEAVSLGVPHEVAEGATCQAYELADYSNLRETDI
Nature of the assay: Radioligand binding, adrenergic α1D ([3H]Prazosin). The method, then: Compounds were incubated with 0.6 nM [3H]Prazosin for 60 min at 25° C. Non-specific binding was estimated in the presence of 10 μM phentolamine. Receptor proteins were filtered and washed, the filters were then counted to determine [3H]Prazosin specifically bound. […] Biochemical assay results are presented as the percent inhibition of specific binding in Table B1.

In assay [4] the target is T4, human recombinant adrenergic α2A receptor (Homo sapiens, UniProt P08913).
T4 construct: expressed in transfected cells; host or cells: insect Sf9 cells
T4 sequence (P08913 1-465): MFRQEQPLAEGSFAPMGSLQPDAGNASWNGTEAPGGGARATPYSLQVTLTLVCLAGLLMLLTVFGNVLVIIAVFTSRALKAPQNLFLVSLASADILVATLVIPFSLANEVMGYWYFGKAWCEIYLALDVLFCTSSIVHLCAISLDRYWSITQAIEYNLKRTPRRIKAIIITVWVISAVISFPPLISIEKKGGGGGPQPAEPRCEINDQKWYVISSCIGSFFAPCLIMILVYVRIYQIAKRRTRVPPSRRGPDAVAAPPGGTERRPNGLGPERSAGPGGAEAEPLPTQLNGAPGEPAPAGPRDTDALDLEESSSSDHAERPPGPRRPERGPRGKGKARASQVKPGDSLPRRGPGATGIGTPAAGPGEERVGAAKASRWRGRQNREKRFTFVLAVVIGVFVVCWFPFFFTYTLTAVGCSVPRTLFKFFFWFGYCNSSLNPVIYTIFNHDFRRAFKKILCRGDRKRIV
As to the kind of experiment: Radioligand binding, adrenergic α2A ([3H]MK-912). Summed up:
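Receptor expressed in insect Sf9 cells, assayed in 50 mM Tris-HCl pH 7.4 with 12.5 mM MgCl2 and 2 mM EDTA. Compounds incubated with 1 nM [3H]MK-912 for 60 min at 25 °C; nonspecific binding defined with 10 μM WB-4101. Filter-bound radioactivity counted; values are percent inhibition of specific binding.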

Where [5] appears, read: 0.1 μM compound, read-out: Percentage inhibition of ligand binding, Adrenergic α2B.
The mark [6] stands for this setting: 0.1 μM compound, read-out: Percentage inhibition of ligand binding, Adrenergic α1B.
Setting [7] is: 0.1 μM compound, read-out: Percentage inhibition of ligand binding, Adrenergic α1D.
Setting [8] is: 0.1 μM compound, read-out: Percentage inhibition of ligand binding, Adrenergic α2A.
Where [9] appears, read: read-out: Percentage inhibition of ligand binding, Adrenergic α2B (0.1 μM), compound at 0.1 μM, [3H]Rauwolscine, repeat datapoints each shown.
[10] abbreviates: read-out: Percentage inhibition of ligand binding, Adrenergic α1B (0.1 μM), compound at 0.1 μM, [3H]Prazosin, repeat datapoints each shown.
[11] abbreviates: read-out: Percentage inhibition of ligand binding, Adrenergic α1D (0.1 μM), compound at 0.1 μM, [3H]Prazosin, repeat datapoints each shown.
Where [12] appears, read: read-out: Percentage inhibition of ligand binding, Adrenergic α2A (0.1 μM), compound at 0.1 μM, [3H]MK-912, repeat datapoints each shown.

SMILES strings stand for the structures. Read-outs that look alike come from different tables or passages of the source.

What is called inhibition is the drop in the measured response relative to a control, in per cent. Consider `C/C(=C/n1c2c(c3cc(C)ccc31)CN(C)CC2)c1cc2ccccc2s1` [compound 293], for which the inhibition at 0.1 µM in assay [1] (setting [5]) stood at 93%; in assay [2] (setting [6]) it was 73%; in assay [3] (setting [7]), 82%; in assay [4] (setting [8]) it was 96%.

Turning to `C/C(=C\n1c2c(c3cc(C)ccc31)CCN(C)CC2)c1ccccc1F` [compound 232], the inhibition at 0.1 µM was 102% in assay [1] (setting [9]), 87% in assay [2] (setting [10]), 43% in assay [3] (setting [11]) and 87% in assay [4] (setting [12]).

With `C/C(=C\n1c2c(c3cc(C)ccc31)CN(C)CC2)c1cccc2ccccc12` [compound 113], the inhibition at 0.1 µM in assay [1] (setting [9]) was 87%; in assay [2] (setting [10]) it was 12%; in assay [3] (setting [11]), 3%; in assay [4] (setting [12]), 29%.

With `Cc1ccc2c(c1)c1c(n2CCc2cccc3c2CCNC3)CCN(C)C1` [compound 317, 2,8-dimethyl-5-[2-(1,2,3,4-tetrahydro-isoquinolin-5-yl)-ethyl]-2,3,4,5-tetrahydro-1H-pyrido[4,3-b]indole], the inhibition at 0.1 µM in assay [1] (setting [5]) was determined as 7%; in assay [2] (setting [6]) it was 89%; in assay [3] (setting [7]), 71%; in assay [4] (setting [8]) it was 61%.

Regarding `Cc1ccc2c(c1)c1c(n2C#Cc2cccc(N(C)C)c2)CCN(C)C1` [compound 256], the inhibition at 0.1 µM in assay [1] (setting [5]) worked out at 58%; in assay [2] (setting [6]), 47%; in assay [3] (setting [7]) it was 23%; in assay [4] (setting [8]) it was 55%.

Take `Cc1ccc2c(c1)c1c(n2C#Cc2ccc(S(N)(=O)=O)cc2)CCN(C)C1` [compound 330, 4-(2,8-dimethyl-1,2,3,4-tetrahydro-pyrido[4,3-b]indol-5-ylethynyl)-benzenesulfonamide]: the inhibition at 0.1 µM in assay [1] (setting [5]) was 99%; in assay [2] (setting [6]) it was 98%; in assay [3] (setting [7]), 72%; in assay [4] (setting [8]), 58%.

For the molecule `CN1CCc2c(c3cccc(Cl)c3n2CC(C)(O)c2ccncc2)C1` (stereo not shown) [compound 32], the inhibition at 0.1 µM in assay [1] (compound at 0.1 μM, [3H]Rauwolscine, repeat assays, each datapoint shown, read-out: Percentage inhibition of ligand binding, Adrenergic α2B) was found to be 86%; in assay [2] (compound at 0.1 μM, [3H]Prazosin, repeat assays, each datapoint shown, read-out: Percentage inhibition of ligand binding, Adrenergic α1B) it was 12%; in assay [3] (compound at 0.1 μM, [3H]Prazosin, repeat assays, each datapoint shown, read-out: Percentage inhibition of ligand binding, Adrenergic α1D), 7%; in assay [4] (compound at 0.1 μM, [3H]MK-912, repeat assays, each datapoint shown, read-out: Percentage inhibition of ligand binding, Adrenergic α2A), 28%.

For `Cc1ccc(CCn2c3c(c4cccnc42)CN2CCCC2C3)cn1` (stereo not shown) [II-234], the inhibition at 0.1 µM in assay [1] (setting [9]) is 33%; in assay [2] (setting [10]), -8%; in assay [3] (setting [11]), -1%; in assay [4] (setting [12]), 7%.

As for `C/C(=C\n1c2c(c3cc(C)ccc31)CN(C)CC2)c1ccc(C(F)(F)F)nc1` [compound 331], the inhibition at 0.1 µM in assay [1] (setting [5]) was 99%; in assay [2] (setting [6]), 53%; in assay [3] (setting [7]), 70%; in assay [4] (setting [8]), 53%.

Take `Cc1ccc2c(c1)c1c(n2CCc2cccc(N(C)C)c2)CCN(C)C1` [compound 298, {3-[2-(2,8-dimethyl-1,2,3,4-tetrahydro-pyrido[4,3-b]indol-5-yl)-ethyl]-phenyl}-dimethyl-amine]: the inhibition at 0.1 µM in assay [1] (setting [5]) was found to be 51%; in assay [2] (setting [6]), 60%; in assay [3] (setting [7]), 17%; in assay [4] (setting [8]), 54%.

With `C/C(=C\n1c2c(c3cc(C)ccc31)CN(C)CC2)c1ccccn1` [compound 259], the inhibition at 0.1 µM was determined as 98% in assay [1] (setting [5]), 71% in assay [2] (setting [6]), 53% in assay [3] (setting [7]) and 82% in assay [4] (setting [8]).

Take `COc1ccc(/C(C)=C/n2c3c(c4cc(C)ccc42)CCN(C)CC3)cc1` [compound 251]: the inhibition at 0.1 µM in assay [1] (setting [5]) was found to be 101%; in assay [2] (setting [6]), 89%; in assay [3] (setting [7]) it was 53%; in assay [4] (setting [8]) it was 85%.

In the case of `C/C(=C/n1c2c(c3cc(C)ccc31)CN(C)CC2)c1ccc(F)nc1` [compound 276], the inhibition at 0.1 µM in assay [1] (setting [5]) worked out at 101%; in assay [2] (setting [6]), 86%; in assay [3] (setting [7]) it was 81%; in assay [4] (setting [8]), 71%.

Turning to `Cc1ccc(C(C)(O)Cn2c3c(c4cc(Cl)ccc42)CN(C)CC3)cc1` (stereo not shown) [II-56], the inhibition at 0.1 µM was determined as 78% in assay [1] (setting [5]), 54% in assay [2] (setting [6]), 11% in assay [3] (setting [7]) and 31% in assay [4] (setting [8]).

Turning to `Cc1ccc2c(c1)c1c(n2CNc2ccccc2)CCN(C)C1` [compound 324, (2,8-dimethyl-1,2,3,4-tetrahydro-pyrido[4,3-b]indol-5-ylmethyl)-phenyl-amine], the inhibition at 0.1 µM in assay [1] (setting [5]) stood at 99%; in assay [2] (setting [6]) it was 63%; in assay [3] (setting [7]), 31%; in assay [4] (setting [8]), 67%.

With `Cc1ccc2c(c1)c1c(n2C2=C(c3sccc3C)CCC2)CCN(C)C1` [compound 302, 2,8-dimethyl-5-(2-(3-methylthiophen-2-yl)cyclopent-1-enyl)-2,3,4,5-tetrahydro-1H-pyrido[4,3-b]indole], the inhibition at 0.1 µM in assay [1] (setting [5]) amounted to 35%; in assay [2] (setting [6]) it was 23%; in assay [3] (setting [7]), 17%; in assay [4] (setting [8]) it was 81%.
